ChEMBL document CHEMBL5537197, “Discovery of Novel Coumarin-quinolinium Derivatives as Pan-KRAS Translation Inhibitors by Targeting 5'-UTR RNA G-Quadruplexes” (J Med Chem, 2024)
Calls of active or inactive are those of the source. The rule behind the calls is not given here.

Columns and labels:
MIA PaCa-2 [1] = assay: Cytotoxicity against human MIA PaCa-2 cells harboring KRAS G12C mutant assessed as cell growth inhibition incubated for 24 hrs by MTT assay; assay type: functional, cell-based; conditions: MIA PaCa-2, 24 h
NCM460 = assay: Cytotoxicity against human NCM460 cells harboring wild-type KRAS assessed as cell growth inhibition incubated for 24 hrs by MTT assay; assay type: functional, cell-based; conditions: NCM460, 24 h
[2] = biological target: GTPase KRas (Homo sapiens) (UniProt P01116); assay: Inhibition of KRAS in human PANC-1 cells at 2.5 uM incubated for 24 hrs by Western blot analysis; assay type: cell-based
Sequence of GTPase KRas (Homo sapiens) (P01116 whole entry, looked up): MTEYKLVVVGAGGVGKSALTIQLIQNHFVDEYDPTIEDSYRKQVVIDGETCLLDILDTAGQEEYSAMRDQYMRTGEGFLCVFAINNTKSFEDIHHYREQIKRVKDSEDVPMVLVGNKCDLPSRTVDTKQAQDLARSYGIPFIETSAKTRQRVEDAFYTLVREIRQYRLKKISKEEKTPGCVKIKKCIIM

PANC-1 = assay: Cytotoxicity against human PANC-1 cells harboring KRAS G12D mutant assessed as cell growth inhibition incubated for 24 hrs by MTT assay; assay type: functional, cell-based; conditions: PANC-1, 24 h
[3] = biological target: GTPase KRas (Homo sapiens) (UniProt P01116); assay: Inhibition of KRAS in human MIA PaCa-2 cells at 2.5 uM incubated for 24 hrs by Western blot analysis; assay type: cell-based
[4] = Cytotoxicity against human PANC-1 cells […] assessed as cell growth inhibition incubated for 24 hrs by MTT assay; assay type: functional, cell-based; conditions: PANC-1, 24 h
[5] = Cytotoxicity against human HFL1 cells harboring wild-type KRAS assessed as cell growth inhibition incubated for 24 hrs by MTT assay; assay type: toxicity, cell-based
[6] = biological target: GTPase KRas (Homo sapiens) (UniProt P01116); assay: Inhibition of KRAS in human PANC-1 cells at >5 uM incubated for 24 hrs by Western blot analysis; assay type: cell-based
NCI-H358 = assay: Cytotoxicity against human NCI-H358 cells harboring KRAS G12C mutant assessed as cell growth inhibition incubated for 24 hrs by MTT assay; assay type: functional, cell-based; conditions: NCI-H358, 24 h
[7] = biological target: GTPase KRas (Homo sapiens) (UniProt P01116); assay: Inhibition of KRAS in human MIA PaCa-2 cells at >5 uM incubated for 24 hrs by Western blot analysis; assay type: cell-based
HPAF-II = assay: Cytotoxicity against human HPAF-II cells harboring KRAS G12D mutant assessed as cell growth inhibition incubated for 24 hrs by MTT assay; assay type: functional, cell-based
[8] = Cytotoxicity against human LX2 cells harboring wild-type KRAS assessed as cell growth inhibition incubated for 24 hrs by MTT assay; assay type: toxicity, cell-based, LX-2
U-87 MG = assay: Cytotoxicity against human U-87 MG cells harboring wild-type KRAS assessed as cell growth inhibition incubated for 24 hrs by MTT assay; assay type: functional, cell-based, U-87MG ATCC
SW-620 = assay: Cytotoxicity against human SW620 cells harboring KRAS G12V mutant assessed as cell growth inhibition incubated for 24 hrs by MTT assay; assay type: functional, cell-based; conditions: SW-620, 24 h
HCT-116 = assay: Cytotoxicity against human HCT-116 cells harboring KRAS G13D mutant assessed as cell growth inhibition incubated for 24 hrs by MTT assay; assay type: functional, cell-based; conditions: HCT-116, 24 h
MIA PaCa-2 [9] = assay: In vivo inhibition of KRAS in human MIA PaCa-2 cells xenografted in BALB/C-nu/nu mouse model at 2.5 mg/kg,ip everyday for 18 days by IHC analysis; assay type: functional, organism-based; conditions: time 18.0 day

Question: Which results are given for `CCN(CC)c1ccc2cc(/C=C/c3cc(N4CCCN(C)CC4)c4cc(F)c(N5CCCN(C)CC5)cc4[n+]3C)c(=O)oc2c1`?
Answer: IC50 (MIA PaCa-2 [1]): 10 µM; IC50 (NCM460): > 40 µM; inhibition [2]: Active; IC50 (PANC-1): 11.5 µM; inhibition [3]: Active; IC50 [4]: > 40 µM

Question: Which IC50 (MIA PaCa-2 [1]) does the source give for `CCN(CC)c1ccc2cc(/C=C/c3ccc4cc(F)c(NCCCN(C)C)cc4[n+]3C)c(=O)oc2c1` here?
Answer: 8.6 µM

Question: And the IC50 (NCM460)?
Answer: > 40 µM

Question: What about the inhibition [2] of the same molecule?
Answer: Active

Question: What about the IC50 (PANC-1) of the same molecule?
Answer: 9 µM

Question: And the inhibition [3]?
Answer: Active

Question: What about the IC50 [4] of the same molecule?
Answer: > 40 µM

Question: Which IC50 (MIA PaCa-2 [1]) does the source give for `CCCCN(CCCC)CCCn1cc(CNc2cc3c(cc2F)c(N2CCN(C)CC2)cc(/C=C/c2cc4ccc(N(CC)CC)cc4oc2=O)[n+]3C)nn1` here?
Answer: 5.9 µM

Question: And the IC50 (NCM460)?
Answer: > 40 µM

Question: What about the inhibition [2] of the same molecule?
Answer: Active

Question: And the IC50 (PANC-1)?
Answer: 8.8 µM

Question: And the inhibition [3]?
Answer: Active

Question: What about the IC50 [4] of the same molecule?
Answer: > 40 µM

Question: Which IC50 (MIA PaCa-2 [1]) does the source give for `CCN(CC)c1ccc2cc(/C=C/c3ccc4cc(F)c(NCCN5CCCCC5)cc4[n+]3C)c(=O)oc2c1` here?
Answer: 43 µM

Question: And the IC50 (NCM460)?
Answer: > 40 µM

Question: And the inhibition [2]?
Answer: Active

Question: And the IC50 (PANC-1)?
Answer: 5.8 µM

Question: What about the inhibition [3] of the same molecule?
Answer: Active

Question: And the IC50 [4]?
Answer: > 40 µM

Question: With `CCN(CC)c1ccc2cc(/C=C/c3ccc4cc(F)c(N5CCN(C)CC5)cc4[n+]3C)c(=O)oc2c1` as the molecule, how does the IC50 at 24 h [5] read?
Answer: > 40 µM

Question: And the IC50 (MIA PaCa-2 [1])?
Answer: 10.8 µM

Question: What about the inhibition [6] of the same molecule?
Answer: Active

Question: And the IC50 (NCI-H358)?
Answer: 11.9 µM

Question: What about the inhibition [7] of the same molecule?
Answer: Active

Question: What about the IC50 (HPAF-II) of the same molecule?
Answer: 32.1 µM

Question: And the IC50 (NCM460)?
Answer: > 40 µM

Question: And the IC50 (PANC-1)?
Answer: 14.7 µM

Question: What about the IC50 at 24 h [8] of the same molecule?
Answer: > 40 µM

Question: And the IC50 (U-87 MG)?
Answer: > 40 µM

Question: What about the IC50 (SW-620) of the same molecule?
Answer: 18.6 µM

Question: And the IC50 [4]?
Answer: > 40 µM

Question: And the IC50 (HCT-116)?
Answer: 19.1 µM

Question: Which results are given for `CCN(CC)c1ccc2cc(/C=C/c3ccc4cc(F)c(NCCCN5CCOCC5)cc4[n+]3C)c(=O)oc2c1`?
Answer: IC50 (MIA PaCa-2 [1]): 4.2 µM; IC50 (NCM460): > 40 µM; inhibition [2]: Active; IC50 (PANC-1): 6 µM; inhibition [3]: Active; IC50 [4]: > 40 µM

Question: For `CCN(CC)c1ccc2cc(/C=C/c3cc(N4CCN(C)CC4)c4cc(F)c(NCc5cn(CCCN6CCCCC6)nn5)cc4[n+]3C)c(=O)oc2c1`, which IC50 (MIA PaCa-2 [1]) is on record?
Answer: > 40 µM

Question: What about the IC50 (NCM460) of the same molecule?
Answer: > 40 µM

Question: And the IC50 (PANC-1)?
Answer: > 40 µM

Question: And the IC50 [4]?
Answer: > 40 µM

Question: With `CCN(CC)c1ccc2cc(/C=C/c3ccc4cc(F)c(N5CCN(Cc6cn([C@@H]7O[C@H](CO)[C@@H](O)[C@H](O)[C@H]7O)nn6)CC5)cc4[n+]3C)c(=O)oc2c1` as the molecule, how does the IC50 (MIA PaCa-2 [1]) read?
Answer: > 40 µM

Question: What about the IC50 (NCM460) of the same molecule?
Answer: > 40 µM

Question: And the IC50 (PANC-1)?
Answer: > 40 µM

Question: And the IC50 [4]?
Answer: > 40 µM

Question: With `CCN(CC)c1ccc2cc(/C=C/c3ccc4cc(F)c(Nc5ccc(N6CCN(C)CC6)nc5)cc4[n+]3C)c(=O)oc2c1` as the molecule, how does the IC50 (MIA PaCa-2 [1]) read?
Answer: 9 µM

Question: And the IC50 (NCM460)?
Answer: 10.4 µM

Question: And the IC50 (PANC-1)?
Answer: > 40 µM

Question: What about the IC50 [4] of the same molecule?
Answer: > 40 µM

Question: Which IC50 (MIA PaCa-2 [1]) does the source give for `CCN(CC)c1ccc2cc(/C=C/c3ccc4cc(F)c(NCc5ccccc5C)cc4[n+]3C)c(=O)oc2c1` here?
Answer: < 1.3 µM

Question: What about the IC50 (NCM460) of the same molecule?
Answer: 18.7 µM

Question: What about the IC50 (PANC-1) of the same molecule?
Answer: 5.9 µM

Question: And the IC50 [4]?
Answer: 4.6 µM

Question: With `CCN(CC)CCCNc1cc2c(ccc(/C=C/c3cc4ccc(N(CC)CC)cc4oc3=O)[n+]2C)cc1F` as the molecule, how does the IC50 (MIA PaCa-2 [1]) read?
Answer: 7.7 µM

Question: And the IC50 (NCM460)?
Answer: > 40 µM

Question: And the inhibition [2]?
Answer: Active

Question: What about the IC50 (PANC-1) of the same molecule?
Answer: 7.2 µM

Question: What about the inhibition [3] of the same molecule?
Answer: Active

Question: And the IC50 [4]?
Answer: > 40 µM

Question: Which IC50 (MIA PaCa-2 [1]) does the source give for `C=CC(=O)N1CCN(c2nc(=O)n(-c3c(C)ccnc3C(C)C)c3nc(-c4c(O)cccc4F)c(F)cc23)[C@@H](C)C1` [SOTORASIB] here?
Answer: > 40 µM

Question: And the Activity (MIA PaCa-2 [9])?
Answer: inactive

Question: And the IC50 (NCM460)?
Answer: > 40 µM

Question: What about the IC50 (PANC-1) of the same molecule?
Answer: > 40 µM

Question: And the IC50 [4]?
Answer: > 40 µM

Question: With `CCN(CC)c1ccc2cc(/C=C/c3cc(N4CCN(C)CC4)c4cc(F)c(NCc5cn(CCc6cccs6)nn5)cc4[n+]3C)c(=O)oc2c1` as the molecule, how does the IC50 (MIA PaCa-2 [1]) read?
Answer: 9 µM

Question: And the IC50 (NCM460)?
Answer: > 40 µM

Question: What about the IC50 (PANC-1) of the same molecule?
Answer: 19.2 µM

Question: And the IC50 [4]?
Answer: > 40 µM

Question: Which IC50 (MIA PaCa-2 [1]) does the source give for `CCN(CC)c1ccc2cc(/C=C/c3ccc4cc(F)c(N5CCN(C(C)=O)CC5)cc4[n+]3C)c(=O)oc2c1` here?
Answer: 5.6 µM

Question: What about the IC50 (NCM460) of the same molecule?
Answer: > 40 µM

Question: What about the IC50 (PANC-1) of the same molecule?
Answer: 32.6 µM

Question: And the IC50 [4]?
Answer: > 40 µM

Question: Which results are given for `CCN(CC)c1ccc2cc(/C=C/c3cc(NCCCN4CCOCC4)c4cc(F)c(NCCCN5CCOCC5)cc4[n+]3C)c(=O)oc2c1`?
Answer: IC50 (MIA PaCa-2 [1]): 4.6 µM; IC50 (NCM460): > 40 µM; IC50 (PANC-1): 29 µM; IC50 [4]: > 40 µM

Question: What does the source list for `CCCCN(CCCC)CCCn1cc(CN2CCN(c3cc4c(ccc(/C=C/c5cc6ccc(N(CC)CC)cc6oc5=O)[n+]4C)cc3F)CC2)nn1`?
Answer: IC50 (MIA PaCa-2 [1]): 7 µM; IC50 (NCM460): > 40 µM; IC50 (PANC-1): 26 µM; IC50 [4]: > 40 µM

Question: Which results are given for `CCN(CC)c1ccc2cc(/C=C/c3ccc4cc(F)c(NCCCN5CCCC5)cc4[n+]3C)c(=O)oc2c1`?
Answer: IC50 (MIA PaCa-2 [1]): 7.8 µM; IC50 (NCM460): > 40 µM; inhibition [2]: Active; IC50 (PANC-1): 11.8 µM; inhibition [3]: Active; IC50 [4]: > 40 µM
